# Test results taken from US20130072459A1, “PHARMACEUTICAL COMPOSITION FOR THE PREVENTION OR THE TREATMENT OF NON-ALCOHOLIC FATTY LIVER DISEASE AND THE METHOD FOR PREVENTION OR TREATMENT OF NON-ALCOHOLIC FATTY LIVER DISEASE USING THE SAME” (priority 2010, published 2013).
# What was measured:
# [1] = tested on: high fat diet-induced simple steatosis; test: Non-alcoholic fatty liver-preventing effects on high fat diet-induced simple steatosis in mice (oral, 28 days); format: in vivo, C57BL/6 mice; conditions: for Triglyceride increase inhibition (%) relative to high fat diet-fed group / Triglyceride increment (%) relative to standard diet-fed group: 28 days, high fat diet
# Experimental: 7-week old male C57BL/6 mice were stabilized and then divided into 9 groups (n=9) according to the body weight and blood glucose level. A standard diet-fed group and a high fat diet-fed group were orally administered a vehicle solution (0.5% MC (methylene cellulose)) of each diet once a day at a dose of 10 ml/kg, and the remaining groups were orally given once a day for 28 days a high fat diet in conjunction with tartrate of Compound 1 at doses of 30, 100 and 300 mg/kg, sitagliptin phosphate at doses of 100 and 300 mg/kg, and vildagliptin at doses of 100 mg/kg and 300 mg/kg, respectively, according to the designated groups. 24 hours after the final oral administration, animals were dissected and the excised liver was homogenized in a 5(v/v) % Triton-X solution to which a triglyceride working reagent was then added, followed by measurement of an absorbance at 540 nm to determine the content of triglyceride (Table 2). In addition, a portion of the excised liver was fixed in a 10(v/v) % formalin solution and then a tissue sample was prepared, followed by hematoxylin & eosin(HE) staining and photographing (FIG. 8).
# TGF-β1 = TGF-β1 mRNA expression in liver, CCl4-induced acute hepatic damage mouse model; format: in vivo, C57BL/6 mice; conditions: for TGF-β1 expression inhibition rate (% CCl4 control group) / TGF-β1 expression (normalized by actin): 3 days; for TGF-β1 expression (normalized by actin): CCl4 0.1 ml/kg i.p.
# Experimental: In order to investigate inhibitory effects of compounds of the present invention on expression of TGF-β1 which is known to play a crucial role in a fibrosis process of hepatocytes in a CCl4-induced acute hepatic damage mouse model, the following experiment was carried out. 7-week old male C57BL/6 mice were stabilized and divided into 9 groups (n=7) according to the body weight, followed by intraperitoneal administration of CCl4 (0.1 ml/kg). The normal control group was administered an olive oil. The control group was orally administered a vehicle solution (0.5% MC) once a day at a dose of 10 ml/kg, at intervals of 24 hours for 3 days. The remaining groups were orally administered once a day tartrate of Compound 1 at doses of 30, 100 and 300 mg/kg, sitagliptin phosphate (prepared according to the method described in WO2004/085378 or WO2005/003135) at doses of 100 and 300 mg/kg, and vildagliptin (Trademax, China) at doses of 100 and 300 mg/kg, respectively, according to the designated groups. 1 hour after the final oral administration, animals were dissected and the excised liver was subjected to evaluation of TGF-β1 mRNA expression. The liver tissue stored in liquid nitrogen was homogenized in a TRIZOL solution and then the total RNAs were extracted. The isolated RNAs were diluted to a concentration of 1 μg/μL in 0.1(v/v) % DEPC (diethyl pyrocarbonate), and then the RNA mixture [2 μg/μL each RNA+2 μL of 0.5 μg/μL oligo d(T)15+up to 15 μL of 0.1% DEPC water] was incubated using a PCR apparatus at 72° C. for 5 minutes, followed by quenching on ice. The mixture [1 μL of PCR nucleotide mix+5 μL of 5×MMLV RT bf.(Promega, M531A)+1 μL of […] M-MLV reverse] was prepared, and then subjected to elongation at 42° C. for 60 minutes, denaturation at 95° C. for 5 minutes and quenching at 8° C. to synthesize cDNAs which were stored at −20° C. until subsequent use. In order to carry out RT-PCR, the mixture [1 μL of 20 pmol each Primer+9.5 μL of Nuclease-free water] was prepared and then 2 μL of each cDNA was placed in sterile PCR tubes to which 12.5 μL of remix Taq™ (RR003A, TaKaRa) was then added, followed by mixing. PCR was carried out under the following conditions (Table 4), using Thermal Cycler (PTC-200, MJ Research). PCT products were electrophoresed and analyzed using an Image Analyzer (Vilber Lourmat). Using β-actin expression, the expression of a target gene TGF-β1 was subjected to normalization (FIG. 11).
# [2] = tested on: activated hepatic stellate cells; test: Expression of activity indicator proteins (TGFβ1, α-SMA) in activated hepatic stellate cells, Western blot; format: cell-based, rat (Wistar); conditions: for 1 ng/mL TGFβ1-induced protein expression inhibition rate, TGFβ1 / 1 ng/mL TGFβ1-induced protein expression inhibition rate, α-SMA: 100 μM compound, 7 days, N = 3, corrected by β-actin; for protein expression levels of TGFβ1 and α-SMA, result in words: hTGF-β1-activated rat hepatic stellate cells
# Experimental: An inhibitory action of the compounds of the present invention on the activation of hepatic stellate cells was tested according to the following cell culture method. Male rats (Wistar rats), weighing 500 to 700 g, were anesthetized, followed by an abdominal incision, and cannulae were connected to hepatic portal veins, followed by sequential perfusion with a Hank's Balanced Salt Solution (HBSS) containing heparin and an HBSS containing type 1 collagenase. After the perfusion was complete, the liver was excised, ground with surgical scissors, and added to an HBSS containing type 1 collagenase, followed by shaking culture at 37° C. for 15 minutes. The completely ground liquid-state liver tissue was passed through gauze and centrifuged at 500 g for 10 minutes. The resulting mingled cell precipitate was washed with a phosphate buffer, followed by centrifugation at 100 g for 5 minutes, and the supernatant was collected. The supernatant was further centrifuged at 500 g for 10 minutes to obtain a precipitate to which a 9:1 (v/v) mixture of a Ficoll liquid (GE Healthcare) and a Percoll liquid (GE Healthcare) was added, followed by mixing. A phosphate buffer was gently placed on the mixed layer, followed by centrifugation at 1,400 g for 15 minutes. Then, the cell layer formed between the upper layer and the lower layer was recovered and washed once with a Dulbecco's Modified Eagle Medium (DMEM) containing 10(v/v) % fetal bovine serum. The resulting cells were added at a cell density of 3.1×10^5 cells/cm^2, the medium was exchanged with a fresh medium after 24 hours, and cultured for 7 days with exchange of the medium at intervals of 2 to 3 days. Then, the drugs were treated at specified concentrations in a medium containing 1 ng/ml of a human transforming growth factor (TGF) β1 and a medium containing no TGF β1. TGF β1 was dissolved in dimethylsulfoxide (DMSO) to a concentration 1.000-fold higher than the desired treatment concentration of the drug, 1.000-fold diluted in a medium to be a 1-fold (1×) volume, and then treated on cells. After 7 days of the drug treatment, the medium was harvested and washed with a phosphate buffer. A buffer containing a surfactant was added thereto and the cells were lysed. Then, proteins were quantified, electrophoresed on a 4-12% Bis-Tris gel (Invitrogen), and transferred to a nitrocellulose membrane. The transferred proteins were reacted with primary antibodies specific for α-smooth muscle actin (α-SMA) or TGFβ1, and then reacted with horse radish peroxidase-conjugated specific secondary antibodies. The expression level of the target protein was confirmed using a chemiluminescent liquid and corrected in terms of actin (β-actin) expression level (FIG. 9). The decrement of observed protein expression by 100 μM of individual compounds of the present invention was expressed as a percentage drug-induced decrement, based an increment of protein expression in the TGFβ1-treated positive control group relative to the negative control group to which only DMSO was added (Table 3).
# HepG2 cells = test: Free fatty acid-induced intracellular fat accumulation, Nile Red staining; format: cell-based, human; conditions: 0.5 mM free fatty acid, 24 hours
# Experimental: By a combined treatment of free fatty acid and a drug, inhibitory effects of individual drugs on intracellular fat accumulation were quantified using a triglyceride staining method. The human hepatoma cell line, HepG2 cells were cultured in a minimum essential medium (MEM) containing 10(v/v) % fetal bovine serum for 48 hours. […] For the negative control group, a MEM containing 1(v/v) % bovine serum albumin was treated with 0.1(v/v) % dimethyl sulfoxide with no addition of free fatty acid. After the culture was complete, the medium was removed and the cells were washed with a phosphate buffer. […] After the staining was complete, the supernatant was discarded and replaced with a phosphate buffer, followed by measurement of fluorescence intensities under conditions of a 488 nm excitation wavelength and a 550 nm emission wavelength. Then, in order to correct a deviation according to the cell count, a phosphate buffer containing 10 μM resazurin (Sigma) dissolved therein was added to the same well. Thereafter, before and after the reaction at 37° C. for 1 hour under light-shielded conditions, fluorescence intensities were measured using a fluorometer under conditions of a 535 nm excitation wavelength and a 580 nm emission wavelength, whereby an increase in fluorescence intensity due to resorufin reduced and formed by the intracellular mitochondrial activity was measured. Using the value of a fluorescence intensity of Nile Red corrected in terms of an increase in fluorescence intensity due to the reduction of resazurin, the experimental results were expressed as a percentage for the fat accumulation increased by a treatment with free fatty acid, as compared to the negative control group.
compound,measurement,setting,value
N#C[C@@H]1CCCN1C(=O)CNC12CC3CC(CC(O)(C3)C1)C2 [vildagliptin],Triglyceride increase inhibition (%) relative to high fat diet-fed group,[1]; 100 mg/kg oral once a day,24%
same,Triglyceride increment (%) relative to standard diet-fed group,[1]; 100 mg/kg oral once a day,38%
same,Triglyceride increase inhibition (%) relative to high fat diet-fed group,[1]; 300 mg/kg oral once a day,79%
same,Triglyceride increment (%) relative to standard diet-fed group,[1]; 300 mg/kg oral once a day,11%
same,"lipid droplets in liver tissue sample (histological evaluation), result in words","[1]; HE staining, FIG. 8",reduction of lipid droplets
same,maximum decrement of the hepatic triglyceride content relative to the high fat diet-fed group,[1]; maximum over the doses tested,79%
same,TGF-β1 expression inhibition rate (% CCl4 control group),TGF-β1; 100 mg/kg oral once a day,92%
same,TGF-β1 expression (normalized by actin),TGF-β1; 100 mg/kg oral once a day,1.02 ± 0.09
same,TGF-β1 expression inhibition rate (% CCl4 control group),TGF-β1; 300 mg/kg oral once a day,115%
same,TGF-β1 expression (normalized by actin),TGF-β1; 300 mg/kg oral once a day,0.96 ± 0.12
same,maximum decrement in TGF-β1 mRNA expression of the liver relative to the CCl4 control group,TGF-β1; maximum over the doses tested,115%
same,"expression of TGF-β1 mRNA of the liver, result in words",TGF-β1; vs CCl4 group,normalization
same,"1 ng/mL TGFβ1-induced protein expression inhibition rate, TGFβ1",[2],14 ± 32.8%
same,"1 ng/mL TGFβ1-induced protein expression inhibition rate, α-SMA",[2],−56 ± 8.4%
same,"protein expression levels of TGFβ1 and α-SMA, result in words",[2],lowered
glucagon-like peptide-1 [GLP-1],inhibitory effects on free fatty acid-induced fat accumulation,HepG2 cells; 100 nM,28.0±4.9%
CN(C)C(=N)N=C(N)N [metformin],inhibition at 1000 µM,"HepG2 cells; Homo sapiens, HepG2, 1 mM, read-out: inhibitory effects on free fatty acid-induced fat accumulation",23.6 ± 5%
CC#CCn1c(N2CCC[C@@H](N)C2)nc2c1c(=O)n(Cc1nc(C)c3ccccc3n1)c(=O)n2C [linagliptin],"1 ng/mL TGFβ1-induced protein expression inhibition rate, TGFβ1",[2],64 ± 17.2%
same,"1 ng/mL TGFβ1-induced protein expression inhibition rate, α-SMA",[2],159 ± 17.5%
same,"protein expression levels of TGFβ1 and α-SMA, result in words",[2],lowered
